# Like-named read-outs stand apart in the source and are kept apart here.
# How the values were obtained:
# CYPlAl [1] = experiment: CYP1A1 activity test (P450-GLO assay) in Hep G2 cells
# Protocol: The tests are carried out using the P450-GLO assay kit from Promega. At D0, the cells are seeded at a density of approximately 60% confluence, and then treated at Dl with the test substance diluted to various concentrations in the appropriate culture medium. At D2, the CYPlAl activity is measured as recommended by the supplier, using the nonlytic protocol on a cell monolayer.
# AhR [2] = biological target: T1, AhR (Homo sapiens, UniProt P35869); experiment: AhR activation test, luciferase reporter plox-XRE TATA-Luc in HEP G2 cells; assay type: cell-based; parameters: endogenous in cells; host or cells: Hep G2 cells transduced with the reporter lentivector plox-XRE TATA-Luc; conditions: for AhR percentage activation compared to 0.01 μM TCDD: HEP G2 cells, most active concentration in the range tested
# T1 sequence (P35869 11-848): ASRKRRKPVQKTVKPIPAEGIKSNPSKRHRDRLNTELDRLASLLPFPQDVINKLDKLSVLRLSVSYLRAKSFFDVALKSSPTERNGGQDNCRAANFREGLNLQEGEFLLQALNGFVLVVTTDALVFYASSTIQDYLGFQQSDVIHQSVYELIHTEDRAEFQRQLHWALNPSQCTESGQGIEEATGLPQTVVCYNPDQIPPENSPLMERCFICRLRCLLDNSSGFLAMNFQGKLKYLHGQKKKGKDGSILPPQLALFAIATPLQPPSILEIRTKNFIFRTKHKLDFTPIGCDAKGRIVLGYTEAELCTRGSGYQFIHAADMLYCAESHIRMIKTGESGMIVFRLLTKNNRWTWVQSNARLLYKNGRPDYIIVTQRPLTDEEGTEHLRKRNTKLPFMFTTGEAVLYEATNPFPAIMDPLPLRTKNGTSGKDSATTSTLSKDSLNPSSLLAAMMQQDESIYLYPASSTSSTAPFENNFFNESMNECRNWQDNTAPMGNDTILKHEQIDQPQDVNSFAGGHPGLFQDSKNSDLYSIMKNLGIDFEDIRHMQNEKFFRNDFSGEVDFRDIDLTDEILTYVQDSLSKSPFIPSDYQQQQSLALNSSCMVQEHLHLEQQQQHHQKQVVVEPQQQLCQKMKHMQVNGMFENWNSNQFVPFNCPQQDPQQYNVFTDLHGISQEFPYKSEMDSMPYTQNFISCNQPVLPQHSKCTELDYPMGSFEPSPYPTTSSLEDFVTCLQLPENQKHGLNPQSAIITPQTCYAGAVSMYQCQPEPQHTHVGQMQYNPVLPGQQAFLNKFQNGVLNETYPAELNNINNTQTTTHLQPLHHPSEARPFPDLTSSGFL
# Protocol: (§1) The Hep G2 cells are cultured in DMEM (Gibco)+10% fetal bovine serum+penicillin+streptomycin, the NHKs in keratinocyte SFM medium (Gibco)+penicillin+streptomycin. At DO, the Hep G2 cells are seeded into 12-well plates in a proportion of approximately 30 000 cells/cm^2. The NHKs are seeded into 6-well plates in a proportion of approximately 15 000 cells/cm^2. After 24 h, the medium is replaced with fresh medium and the cells are transduced with the lentivector plox-XRE TATA-Luc. After 48 h, the cells are subcultured and maintained in culture, and tested for their reactivity to TCDD.
# The tests are carried out using the luciferase reporter assay system kit from Promega. At DO, the cells are seeded at a density of approximately 60% confluence, and then treated, at Dl, with the test substance diluted to various concentrations in the appropriate culture medium. At D2, the cells are lysed in CLB buffer, and the lysate is clarified by centrifugation for 5 min at 10 000 g. The luciferase activity is measured in 20 microliters of lysate as recommended by the supplier, using the luminoskan luminometer (Thermo).
# sebaceous glands [3] = experiment: Sebaceous glands in the ear skin of C57BL/6 mice after topical application; assay type: in vivo
# Description: The effect on the sebaceous glands can be reproduced in animals by topical application of TCDD. A 95% reduction in the number of sebaceous glands can be observed in C57BL/6 mice after 45 days of application of 2 mcg/ml TCDD (FIG. 2).
# To reproduce the useful effect of TCDD, in a therapeutic reduction approach the reduction in the surface area of the sebaceous glands in the ears of C57BL/6 mice treated once a day for 45 d with various ligands according to the invention can be studied. The surface area of the sebaceous glands is measured on three serial sections per animal. A reduction of greater than 40% is sought, and obtained here with a concentration, a treatment time and an application frequency considered to be minimal. Isotretinoin is shown by way of example of a product used for the topical and systemic treatment of acne.
# The topical application of an AhR ligand such as 6-formylindolo[3,2-b]carbazole (FICZ), at a concentration of 100 mcg/ml, makes it possible to obtain a significant decrease in the sebaceous glands, of the order of 40%. Other ligands according to the invention (see FIGS. 14, 15 and 17) also lead to a decrease in the surface area of the sebaceous glands.
# human keratinocytes = experiment: Wound healing in vitro on a culture of human keratinocytes (migration index); assay type: cell-based
# Protocol: The wound is induced by means of an incision with a yellow micropipette tip (10-200 μl). Migration index value obtained with the ligand/that of the control without ligand. […] This indicates an activity of the AhR activation pathway on the migration of keratinocytes which is found in vivo in humans (FIGS. 5, 6, 10).
# sebaceous glands [4] = experiment: Sebaceous glands in biopsies of human skin exposed to TCDD (histology); assay type: in vivo; conditions: human skin containing 930 to 2900 ppt of TCDD; 62 biopsies, 620 sections
# Protocol: The sebaceous glands, which are present in large numbers in normal human skin, disappear during exposure to toxic doses of TCDD. […] Thus, on the face of an adult, the number is between 400 and 900/cm^2.
# For each site, 3 to 10 skin biopsies were analyzed after fixing with formol and staining with hematin-eosin. At least 10 sections per block were analyzed.
# dermabrasions = experiment: Healing of superficial epidermal-dermal wounds (dermabrasions) in human skin containing TCDD; assay type: in vivo
# Description: Thus, the time to complete healing is reduced from 9.3 to 5 days.
# CYPlAl [5] = experiment: CYP1A1 activity test (P450-GLO assay) in NHK cells; assay type: cell-based, human; conditions: 10 nM, 24 h
# human skin [6] = experiment: Messenger RNA expression (RT PCR, transcriptome) in human skin exposed to TCDD; assay type: in vivo
# Description: This observation identifies a new target for medicaments aimed at modulating sebaceous function, a concept exemplified here by AhR activation.
# The expression of the messenger RNAs of vascular endothelial growth factors (VEGFs) and of their receptors is increased in skin exposed to TCDD.
# The expression of the messenger RNAs of the various estrogen receptors ESRR and ER, of the estrogen responsive finger protein (EFP) ligase and of the estrogen-producing aromatase enzyme is increased in skin exposed to TCDD.
# human skin [7] = experiment: Estradiol (E2) concentration in human skin exposed to TCDD by ELISA; assay type: in vivo; conditions: human skin containing 1800 ppt of TCDD versus controls
# [8] = tested on: staphylococcus sp, P. acnes; experiment: Bacterial colonization of human skin exposed to TCDD (CFU per cm^2); assay type: in vivo
# [9] = human organism; cited from earlier work
# AhR [10] = biological target: T1, AhR; experiment: Test for potentiation by bacterial flora: AhR activation in HEP G2 cells with skin bacteria extracts and tryptophan; assay type: cell-based; parameters: endogenous in cells; host or cells: Hep G2 cells transduced with the reporter lentivector plox-XRE TATA-Luc
# Protocol: The activation value 25.00 on the Y-axis corresponds to ⅙ of the AhR stimulation by 10 nM TCDD in this same system (157.00).
# AhR [11] = biological target: T1, AhR; experiment: AhR activation test, luciferase reporter plox-XRE TATA-Luc in normal human keratinocytes; assay type: cell-based; parameters: endogenous in cells; host or cells: normal human keratinocytes (NHKs) transduced with the reporter lentivector plox-XRE TATA-Luc; conditions: NHK-plox-XRE TATA-Luc cells, 10 nM, 24 h
# Protocol: FIGS. 14, 15 and 16 show AhR activation in HEP G2 cells and normal human keratinocytes (NHKs) stably transfected with the lentivector plox-XRE TATA-Luc.
# as §1
# The tests are carried out using the luciferase reporter assay system kit from Promega. […] At D2, the cells are lysed in CLB buffer, and the lysate is clarified by centrifugation for 5 min at 10 000 g. The luciferase activity is measured in 20 microliters of lysate as recommended by the supplier, using the luminoskan luminometer (Thermo).
# Similar results are noted.
# seborrhea = experiment: Sebumetric measurement of casual sebum levels on the face of hyperseborrheic men; assay type: in vivo, human; conditions: gel containing 1% tryptophan on the face of two hyperseborrheic men for 3 weeks
# Description: The effect shown in FIG. 16, where it is seen that Propionibacterium acnes (PA) generates an AhR activation, which is highly accentuated by the addition of tryptophan, can be taken advantage of in the context of this invention. This is because PA is one of the key players in sebaceous gland diseases, and it is present in large amounts in facial skin. It could therefore contribute to producing therapeutic amounts of AhR ligands in the presence of tryptophan, or also other aromatic amino acids such as tyrosine and phenylalanine. In order to explore the relevance of this approach, the applicant carried out a test by applying a gel containing 1% tryptophan to the face of two hyperseborrheic men for 3 weeks, and observed a decrease in the seborrhea which could be evaluated at 40% of the starting value using sebumetric measurement of the casual sebum levels.
# chronic wounds = experiment: Chronic human leg wounds with dermatoporosis treated with tryptophan gel; assay type: in vivo
# [12] = human skin containing 1800 ppt of TCDD versus controls
smiles,measurement,setting,value
"CCOC(=O)c1cc2c(cn1)[nH]c1ccccc12 [B-CCE, Ethyl β-carboline-3-carboxylate]",induction of CYPlAl activity by ligands according to the invention,"CYPlAl [1]; FIG. 17, cell type not stated for the ligands",induction of this AhR-dependent biological activity
same,AhR percentage activation compared to 0.01 μM TCDD,AhR [2],greatest activities
"O=Cc1c2c(cc3c1=Nc1ccccc1-3)=Nc1ccccc1-2 [FICZ, 6-Formylindolo[3,2-b]carbazole]",decrease in the sebaceous glands,"sebaceous glands [3]; C57BL/6 mice ears, topical 100 mcg/ml, once a day for 45 d",~40%
same,effect on healing at the highest concentrations,human keratinocytes,"a decrease in the effect, or even an inhibition of healing"
same,stimulation of healing (migration index),human keratinocytes; μM concentrations,strong stimulation of healing
same,AhR percentage activation compared to 0.01 μM TCDD,AhR [2],greatest activities
"Clc1cc2c(cc1Cl)Oc1cc(Cl)c(Cl)cc1O2 [TCDD, 2,3,7,8-tetrachlorodibenzo-p-dioxin]",sebaceous glands observed in skin biopsies,sebaceous glands [4],no sebaceous gland could be observed
same,reduction in the number of sebaceous glands,"sebaceous glands [3]; C57BL/6 mice, topical 2 mcg/ml, 45 days",95%
same,time in which epidermal-dermal wounds are covered,"dermabrasions; human exposed to TCDD, average healing time ordinarily 10 days",3 days
same,time to complete healing of dermabrasions,"dermabrasions; human skin with 930 to 2900 ppt TCDD, controls 9.3 days",5 days
same,effect on healing at the highest concentrations,human keratinocytes,"a decrease in the effect, or even an inhibition of healing"
same,stimulation of healing (migration index),human keratinocytes; nM concentrations,strong stimulation of healing
same,induction of the CYPlAl activity,"CYPlAl [1]; Hep G2 cells, 10 nM, 24 h",250 fold
same,induction of the CYPlAl activity,CYPlAl [5],20 fold
same,"expression of messenger RNAs of estrogen receptors ESRR and ER, EFP ligase and aromatase",human skin [6]; [12],increased
same,expression of messenger RNAs of vascular endothelial growth factors (VEGFs) and their receptors,human skin [6]; [12],increased
same,hyaluronate in the dermis,human skin [6]; human skin exposed to TCDD,very substantial accumulation of hyaluronate in the dermis
same,messenger RNAs of sebaceous lipogenesis enzymes,"human skin [6]; human skin exposed to TCDD, whole transcriptome",considerable reduction
same,concentration of estradiol (E2) in skin,human skin [7],increase in the concentration of estradiol
same,P. acnes colonization of skin,[8]; human skin exposed to TCDD,same effect is observed
same,colonization of skin by staphylococcus sp (CFU per cm^2),"[8]; human with more than 900 ppt of TCDD in the skin, 4 samples 1 month apart",very greatly decreased
same,half-life in human tissues,[9],4-12 years
same,induction of the luciferase activity,"AhR [2]; Hep G2-plox-XRE TATA-Luc cells, 10 nM, 24 h",100 fold
same,AhR stimulation (activation value on the Y-axis),AhR [10]; 10 nM,157.00
same,induction of the luciferase activity,AhR [11],10 fold
"COc1ccccc1OCCNCC(O)COc1cccc2[nH]c3ccccc3c12 (stereo not shown) [carvedilol, Carvedilol]",induction of CYPlAl activity by ligands according to the invention,CYPlAl [1],induction of this AhR-dependent biological activity
"O=c1cc(O)cc(/C=C/c2ccc(O)c(O)c2)o1 [hispidin, Hispidin]",AhR percentage activation compared to 0.01 μM TCDD,AhR [2],greatest activities
"O=c1c2ccccc2nc2n1CCc1c-2[nH]c2ccccc12 [rutaecarpine, Rutaecarpine]",induction of CYPlAl activity by ligands according to the invention,CYPlAl [1],induction of this AhR-dependent biological activity
N[C@@H](Cc1c[nH]c2ccccc12)C(=O)O [tryptophan],"decrease in the seborrhea (casual sebum levels), of the starting value",seborrhea,40%
same,stimulation of healing (migration index),human keratinocytes; μM concentrations,strong stimulation of healing
same,dermatoporotic skin around the wound,chronic wounds,thickening of the dermatoporotic skin around the wound
same,healing of chronic wounds,chronic wounds; series of 10 cases of chronic wounds on legs,Contraction of chronic wounds and the development of epithelial healing
same,AhR percentage activation compared to 0.01 μM TCDD,AhR [2],greatest activities
same,AhR activation with bacterial extract on addition of tryptophan,AhR [10]; in particular with P. acnes extract,an increase in the activation is observed

# — patent publication US9358220B2, “Method of treating acne” (THESAN PHARMACEUTICALS, INC., priority 2008, dated 2016)
